Assay results: patent publication US7687486B2, “Selective estrogen receptor modulators” (Florida Agricultural & Mechanical University, priority 2003, dated 2010)
Where a name gives a salt, the structure may show the parent alone.

Test system: MCF-7 breast cancer cell line
Assay: MCF-7 breast cancer cell proliferation assay (cell counting after about 72 hours)
Type: cell-based, human
Conditions: Table 1, Structure II compounds group; about 72 hours incubation, HCl salts; read-out: IC50 (micromolar scale) MCF-7 breast cancer cell line
Procedure: MCF-7 (ATCC HTB-22) cells, purchased from ATCC (Rockville, Md.), were grown in RPMI medium 1640 with 10% FBS (GIBCO, Grand Island, N.Y.) and 1% Antibiotic-Antimycotic (GIBCO, Grand Island, N.Y.) in an incubator (NUAIRE NU-1500, Plymouth, Minn.) with 5% CO2 and 95% air at about 37° Celsius. Cells were grown as monolayer, doubling time is from about 19 to about 24 hours. The stock solution of the test compound was prepared at 1 mg/ml drug concentration. The stock solution was diluted serially to obtain the desired drug concentrations, of from about 20 to about 200 μg/ml. Plates with twelve wells (5 ml capacity/well) were employed for all the experiments. In a typical experiment, each well contained 1×10^5 initial cells and about 100 μl drug solution in a total volume of about 2 ml media. The final concentrations of compounds were from about 0 to about 100 μg/ml in triplicate sample wells. The plates were incubated at 5% CO2 and 37° C. for about 72 hours. After incubation, cells were washed with PBS 1×, treated by 0.5 ml trypsin-EDTA for about 10 minutes and the cells were suspended by adding about 1.5 ml medium. Cells were counted by using a hemacytometer under a microscope. The data was converted to micromolar concentration using the various molecular weights and represent the mean values and standard errors.
Tables 1-4 illustrate the IC50 (50% inhibitory concentration) values of compounds described in this application against the MCF-7 breast cancer cell line.
In the case of `CC(C)N(CCOc1ccc2c(c1)CC[C@@H]1[C@@H]2CC[C@]2(C)[C@@H](O)CC[C@@H]12)C(C)C` [(17β)-3-[2-diisopropylamino]-ethoxy]-]-Δ^1,3,5(10)-estrien-17-ol], the IC50 is reported as 5.6 µM. With `CCN(CC)CCOc1ccc2c(c1)CC[C@@H]1[C@@H]2CC[C@]2(C)[C@@H](O)CC[C@@H]12` [(17β)-3-[2-diethylamino]-ethoxy]-]-Δ^1,3,5(10)-estrien-17-ol] the IC50 was 8.7 µM. Work on `C[C@]12CC[C@@H]3c4ccc(OCCN5CCOCC5)cc4CC[C@H]3[C@@H]1CC[C@@H]2O` [(17β)-3-[2-morpholinyl]-ethoxy]-]-Δ^1,3,5(10)-estrien-17-ol] yielded an IC50 of 19.8 µM. Compound `CN(C)CCOc1ccc2c(c1)CC[C@@H]1[C@@H]2CC[C@]2(C)[C@@H](O)CC[C@@H]12` [(17β)-3-[2-dimethylamino]-ethoxy]-Δ^1,3,5(10)-estrien-17-ol] has an IC50 of 16.2 µM. Work on `C[C@]12CC[C@@H]3c4ccc(OCCN5CCCCC5)cc4CC[C@H]3[C@@H]1CC[C@@H]2O` [(17β)-3-[2-piperidinyl]-ethoxy]-]-Δ^1,3,5(10)-estrien-17-ol] yielded an IC50 of 4.1 µM. Compound `CC/C(=C(\c1ccc(O)cc1)c1ccc(OCCN(C)C)cc1)c1ccccc1` [4-Hydroxytamoxifen HCl salt, Trans-4-Hydroxytamoxifen, reference compound] has an IC50 of 9 µM. For `C[C@]12CC[C@@H]3c4ccc(OCCN5CCCC5)cc4CC[C@H]3[C@@H]1CC[C@@H]2O` [(17β)-3-[2-pyrrolidinylamino]-ethoxy]-]-Δ^1,3,5(10)-estrien-17-ol], the IC50 was 10.8 µM.

Same assay, conditions: Table 2, Structure III compounds group; about 72 hours incubation, HCl salts; read-out: IC50 (micromolar scale) MCF-7 breast cancer cell line
`C#C[C@]1(O)CC[C@H]2[C@@H]3CCc4cc(OCCN(CC)CC)ccc4[C@H]3CC[C@@]21C` [3-[2-diethylamino]-ethoxy]-]-Δ^1,3,5(10)-estrien-17α-ethynyl-17β-ol] gave an IC50 of 7.3 µM. Work on `C#CC1(O)CCC2C3CCc4cc(OCCN5CCCCC5)ccc4C3CCC21C` (stereo not drawn) [3-[2-piperidinyl]-ethoxy]-]-Δ^1,3,5(10)-estrien-17α-ethynyl-17β-ol] yielded an IC50 of 6.1 µM. In the case of “3-[2-pyrrolidinylamino]-ethoxy]-]-Δ^1,3,5(10)-estrien-17α-ethynyl-17βol”, the IC50 is reported as 6.4 µM. In the case of `CC/C(=C(\c1ccc(O)cc1)c1ccc(OCCN(C)C)cc1)c1ccccc1` [4-Hydroxytamoxifen HCl salt, Trans-4-Hydroxytamoxifen, reference compound], the IC50 is reported as 9.5 µM. For `C#CC1(O)CCC2C3CCc4cc(OCCN5CCOCC5)ccc4C3CCC21C` (stereo not drawn) [3-[2-morpholinyl]-ethoxy]-]-Δ^1,3,5(10)-estrien-17α-ethynyl-17β-ol], the IC50 was 21.5 µM. `C#CC1(O)CCC2C3CCc4cc(OCCN(C(C)C)C(C)C)ccc4C3CCC21C` (stereo not drawn) [3-[2-diisopropylamino]-ethoxy]-]-Δ^1,3,5(10)-estrien-17α-ethynyl-17β-ol] showed an IC50 of 8.3 µM. For `C#CC1(O)CCC2C3CCc4cc(OCCN(C)C)ccc4C3CCC21C` (stereo not drawn) [3-[2-dimethylamino]-ethoxy]-]-Δ^1,3,5(10)-estrien-17α-ethynyl-17β-ol], the IC50 was 9.1 µM.

Same assay, conditions: Table 3, Structure IV compounds group; about 72 hours incubation, HCl salts; read-out: IC50 (micromolar scale) MCF-7 breast cancer cell line
In the case of `CCN(CC)CCOc1ccc2c(c1)CC[C@@H]1[C@@H]2CC[C@]2(C)C(=O)CC[C@@H]12` [3-[2-diethylamino]-ethoxy]-]-Δ^1,3,5(10)-estrien-17-one], the IC50 is reported as 7.5 µM. “3-[2-pyrrolidinylamino]-ethoxy]-]-Δ^1,3,5(10)-estrien-17-one” showed an IC50 of 10.6 µM. Compound `CN(C)CCOc1ccc2c(c1)CC[C@@H]1[C@@H]2CC[C@]2(C)C(=O)CC[C@@H]12` [3-[2-dimethylamino]-ethoxy]-]-Δ^1,3,5(10)-estrien-17-one] has an IC50 of 37.8 µM. Compound `CC(C)N(CCOc1ccc2c(c1)CC[C@@H]1[C@@H]2CC[C@]2(C)C(=O)CC[C@@H]12)C(C)C` [3-[2-diisopropylamino]-ethoxy]-]-Δ^1,3,5(10)-estrien-17-one] has an IC50 of 9.2 µM. `C[C@]12CC[C@@H]3c4ccc(OCCN5CCCCC5)cc4CC[C@H]3[C@@H]1CCC2=O` [3-[2-piperidinyl]-ethoxy]-]-Δ^1,3,5(10)-estrien-17-one] gave an IC50 of 5.1 µM. With `CC/C(=C(\c1ccc(O)cc1)c1ccc(OCCN(C)C)cc1)c1ccccc1` [4-Hydroxytamoxifen HCl salt, Trans-4-Hydroxytamoxifen, reference compound] the IC50 was 10.6 µM. In the case of `C[C@]12CC[C@@H]3c4ccc(OCCN5CCOCC5)cc4CC[C@H]3[C@@H]1CCC2=O` [3-[2-morpholinyl]-ethoxy]-]-Δ^1,3,5(10)-estrien-17-one], the IC50 is reported as 20.8 µM.

Test system: advanced breast cancer
Assay: not given
Conditions: tamoxifen 20 mg/day; cited from earlier work
In the case of `CC/C(=C(\c1ccccc1)c1ccc(OCCN(C)C)cc1)c1ccccc1` [tamoxifen], the response rate is listed as 44%.

Same assay, conditions: toremifene 60 mg/day; cited from earlier work
For `CN(C)CCOc1ccc(/C(=C(/CCCl)c2ccccc2)c2ccccc2)cc1` [toremifene], the response rate is listed as 50%.

Same assay, conditions: toremifene 200 mg/day; cited from earlier work
For `CN(C)CCOc1ccc(/C(=C(/CCCl)c2ccccc2)c2ccccc2)cc1` [toremifene], the response rate is given as 48%.

Test system: breast cancer
Assay: not given
Conditions: adjuvant therapy; cited from earlier work
In the case of `CN(C)CCOc1ccc(/C(=C(/CCCl)c2ccccc2)c2ccccc2)cc1` [toremifene], the “reduction in the recurrence of breast cancer” value is listed as “not found to exhibit a statistically significant reduction in the recurrence of breast cancer”.
